The term Cmax denotes the maximum level reached in the sampled fluid or tissue.

Holding throughout (format): in vivo, human
A short description of data set [1]: Pharmacokinetics of single doses of intranasal butorphanol tartrate, three-way crossover study. As to conditions: for F(%): relative to 2 mg i.v. As for the experimental part: Pharmacokinetic parameters of single doses of intranasal butorphanol tartrate using a single-dose, metered sprayer were evaluated in a 24 subject, three-way crossover study. The intranasal formulation contained aqueous buffered solution (pH 5) having 0.2% sodium citrate and 0.2% citric acid and 1 mg of butorphanol tartrate per ml. […] Each volunteer received three treatments: (1) 2 mg of i.v. butorphanol, (2) 2 mg of intranasal butorphanol, and (3) 1 mg of intranasal butorphanol. Each treatment was separated by a 6 day washout period.

Data set [2] in a line: Pharmacokinetics and bioequivalence of butorphanol formulation, unit-dose vs multi-dose delivery device. The following applies: 2 mg intranasal. How it is done: The experiments described in this example compared bioavailability and other parameters of a butorphanol formulation when administered using a unit-dose or multi-dose delivery device. The butorphanol formulation used for this example (STADOL NS®) contained 10 mg butorphanol tartrate, 6.5 mg sodium chloride, 1.0 mg citric acid, 0.20 mg benzethonium chloride in purified water with 1.2 mg sodium hydroxide and hydrochloric acid added to adjust the pH to 5.0.
The multi-dose sprayer purported by its label to administer 0.1 ml of liquid composition by metering upon activation by the user. The unit-dose spray device was a disposable intranasal applicator that is commercially available from Pfeiffer of America under the designation “Unitdose Second Generation.” Each of the Pfeiffer spray applicators was charged with sufficient liquid to deliver a 0.1 ml dose of the butorphanol formulation. The associated glass containers were filled using a pipette under clean conditions, sealed and assembled to the applicator. Each of the applicators was weighed prior to use and after use. Qualified medical personnel administered one dose into each nostril, after which the applicator was recovered for weighing. In the case of the unit-dose applicators, two devices were used for each patient for a total of 2 mg butorphanol tartrate.
Pharmacokinetics and bioequivalence (intrasubject variabilitiy) of the above-described butorphanol formulation upon administration using either the multi-dose or unit dose delivery device was assessed. The study was initiated with 16 subjects, 15 of which completed the study to provide data for this analysis; one subject dropped out after the second period. The following analysis considers both raw and normalized data, with the latter standardized with respect to the dose dispensed.
For both the raw and normalized data, log transformations are applied to the pharmacokinetic endpoints Cmax, AUC(last), and AUC(inf). A mixed effects model was considered for each parameter. Fixed effects for the factors sequence (4 levels), period 3 levels) and device (2 levels) were included in the model. Additionally, gender, as well as the interactions between gender and each of sequence, period and device was included as a factor in each model to determine whether separate analyses would be necessary for males and females. A total of seven models were considered: Tmax, log of raw Cmax values, log of normalized Cmax values, log transformed values for raw and normalized AUC(last), and log values for raw and normalized AUC(inf). […] In addition, the lack of significance of the effects included in each model indicate that there was no evidence of unequal carryover between the two delivery devices. […]

Data set [3] in a line: Pharmacokinetics of single or multiple doses of intranasal butorphanol tartrate, two-way crossover study. As for the experimental part:
Pharmacokinetic parameters of single doses or multi doses of intranasal butorphanol tartrate using a single-dose, metered sprayer were evaluated in a 12 subject, two-way crossover study. The butorphanol formulation used was as described in Example 2. Each volunteer received either 1 or 2 mg of intranasal butorphanol as a single does (Treatment A) and 1 or 2 mg of intranasal butorphanol every six hours for seven doses (Treatment B). The butorphaonol composition was substantially as described in Example 2. During phase 1, 12 subjects received a single 1 mg dose. During phase 2, those who received the 1 mg single dose received 1 mg every six hours for seven doses. During phase 3, those who received the 2 mg single dose received 2 mg every six hours for seven doses. Serial blood samples were collected over 12 hours. Pharmacokinetic parameters are show in Table 5.

[4] abbreviates: Multiple Dose 1 mg q 6 hr intranasal.
Setting [5] is: Multiple Dose 2 mg q 6 hr intranasal.

Turning to `O=C(O)C(O)C(O)C(=O)O.Oc1ccc2c(c1)[C@@]13CCCC[C@@]1(O)[C@@H](C2)N(CC1CCC1)CC3` [butorphanol tartrate], the AUC0-t was 4.88 ± 1.5 ng·h/mL in data set [1] (1 mg intranasal); 12.59 ± 2.3 ng·h/mL in data set [1] (2 mg i.v.); 9.51 ± 1.9 ng·h/mL in data set [1] (2 mg intranasal); “about 9329 pg*hr/ml” in data set [2] (STADOL NS multi-dose device); 7.21 ng·h/mL in data set [3] (setting [4]); 15.75 ng·h/mL in data set [3] (setting [5]). The AUC0-t was determined as 3.80 ng·h/mL in data set [3] (Single Dose 1 mg intranasal) and 9.55 ng·h/mL in data set [3] (Single Dose 2 mg intranasal). Besides, the Cmax in data set [1] (1 mg intranasal) is 1.67 ± 0.7 ng/mL; in data set [1] (2 mg i.v.), 10.32 ± 2.7 ng/mL; in data set [1] (2 mg intranasal), 3.38 ± 1.3 ng/mL; in data set [2] (STADOL NS multi-dose device) it was “about 4027 pg/ml”; in data set [3] (setting [4]), 1.55 ng/mL; in data set [3] (setting [5]), 3.80 ng/mL. The results for the Cmax in data set [3] (Single Dose 1 mg intranasal) and in data set [3] (Single Dose 2 mg intranasal) were 1.46 ng/mL and 4.13 ng/mL, respectively. In addition, the “F(%)” value is 80.2 ± 29.1% in data set [1] (1 mg intranasal) and 77.6 ± 18.3% in data set [1] (2 mg intranasal). For the same molecule, in data set [2] (STADOL NS multi-dose device), the Tmax entry is recorded as “about 0.245 hr”. Further, in data set [2] (unit-dose device), the AUC entry is “about 10661 pg*hr/ml”. In addition, the Tmax range result in data set [3] (setting [4]) is listed as “(0.25-3.0)”; in data set [3] (setting [5]), “(0.25-0.75)”; in data set [3] (Single Dose 1 mg intranasal), “(0.17-1.02)”; in data set [3] (Single Dose 2 mg intranasal), “(0.167-0.5)”.

The values are drawn from patent publication US20060083691A1, “Intranasal opioid compositions, delivery devices and methods of using same” (priority 2000, published 2006).
